We go through two molecules from US20230080819A1, “HERBICIDE COMBINATIONS COMPRISING GLUFOSINATE AND TIAFENACIL” (BASF SE, priority 2020, published 2023).

Common to all, as to type: in vivo
Holding throughout (conditions): 20 DAT

In assay [1] the test system is Amaranthus tuberculatus (AMATU). Put plainly: Greenhouse post-emergence weed control, waterhemp.
Assay [2] concerns Amaranthus Palmeri (AMAPA). Put plainly: Greenhouse post-emergence weed control, Palmer Amaranth.
The subject of another assay is Galium aparine (GALAP). Put plainly: Greenhouse post-emergence weed control, Cleavers.
Assay [3] has as its system Echinochloa crus-galli (ECHCG). Put plainly: Greenhouse post-emergence weed control, barnyardgrass.

As to `CP(=O)(O)CCC(N)C(=O)O` (racemic) [Glufosinate, (2RS)-2-amino-4-[hydroxy(methyl)phosphinoyl]butyric acid], the Solo % activity is 10% in assay [1] (Glufosinate 50 g ai/ha solo, post-emergence, AMATU, 1% MSO); 10% in assay [1] (Glufosinate 100 g ai/ha solo, AMATU); 70% in assay [1] (Glufosinate 200 g ai/ha solo, AMATU); 25% in assay [2] (Glufosinate 100 g ai/ha solo); 75% in assay [2] (Glufosinate 200 g ai/ha solo); 60% in the assay on Galium aparine (GALAP) (Glufosinate 100 g ai/ha solo). For the same molecule, the Solo % activity in assay [3] (Glufosinate 50 g ai/ha solo, ECHCG) was 10%; in assay [3] (Glufosinate 100 g ai/ha solo, ECHCG), 25%.
Regarding `COC(=O)CCNC(=O)C(C)Sc1cc(-n2c(=O)cc(C(F)(F)F)n(C)c2=O)c(F)cc1Cl` (stereo not shown) [Tiafenacil, tiafenacil], the Solo % activity in assay [1] (Tiafenacil 1.5 g ai/ha solo, AMATU (Table 2)) turned out to be 15%; in assay [1] (Tiafenacil 1.5 g ai/ha solo, AMATU (Table 5)), 15%; in assay [1] (Tiafenacil 1.5 g ai/ha solo, post-emergence, AMATU, 1% MSO), 15%; in assay [2] (Tiafenacil 0.15 g ai/ha solo) it was 0%; in assay [2] (Tiafenacil 1.5 g ai/ha solo) it was 25%; with Galium aparine (GALAP) (Tiafenacil 0.5 g ai/ha solo), 0%. Also, the Solo % activity came out at 10% in assay [3] (Tiafenacil 0.5 g ai/ha solo, ECHCG (Table 3)) and 10% in assay [3] (Tiafenacil 0.5 g ai/ha solo, ECHCG (Table 7)).
